Data set [1] deals with Swiss albino mice. The data set is described as follows: Intravenous toxicity study in mice (seven-day LD50). The settings on record: lateral tail vein, 1 ml./min., concentration I W/V: Example 1 26.3, Example 2 11.25, Example 3 28.2, Example 5 28.0. In kind it is in vivo. On the procedure: (§1) Intravenous, intracerebral and intracisternal acute toxicities of the compounds of Examples 1-5 were determined according to the following procedures.
Intravenous toxicity study in mice
Swiss albino mice with weights ranging from 18 to 25 grams were used for the performance of the test. Three to four groups of mice with sexes equally represented in each group received single measured doses (mg. of contrast media/kg of body weight) injected into a lateral tail vein at a rate of 1 ml./min.
Mortalities were recorded during the first four hours then daily for seven days. After seven days, surviving animals were sacrificed and necropsies performed.
Calculation of the seven-day LD50 value was carried out according to the method of Litchfield and Wilcoxon (J. Pharmacol. Exp. Ther. 96, 99-113, 1949)

The subject of data set [2] is Sprague Dawley rats. The data set is described as follows: Intracisternal toxicity study in rats (LD50). It counts as in vivo. The following applies: cisterna magna, single dose, seven days, concentration I W/V: Example 1 35.0, Example 2 11.25, Example 3 14.1, Example 5 35.0. The protocol:
as §1
Intracisternal toxicity study in rats
The method of intracisternal administration of contrast media in rats was based on the procedure outlined by Melartin, et al. (Investigative Radiology, Jan. - Feb. 13, 12, 1970). Sprague Dawley rats were anesthetized with ether and positioned on a slanted stand. Following clipping of their hair on the nuchal and cervical area, a small midline incision was made in the skin in the occipital area to facilitate penetration of a 27 gauge needle into the cisterna magna. […] Single measured doses of the contrast medium were then injected.
Following injection, the animals were individually housed and observed for pharmacological and toxicological manifestations. Mortalities were recorded during the first four hours, then daily for seven days. Calculation of the LD50 value was carried out according to the method of Litchfield and Wilcoxon (J. Pharmacol. Exp. Ther. 96, 99-113, 1949)

The nature of data set [3]: Solubility in water.
Data set [4] has as its system Swiss albino mice. The data set is described as follows: Intracerebral toxicity study in mice (48 hours LD50). The following applies: 0.05 ml. (0.1 ml. maximum), concentration I W/V: Example 1 26.3, Example 2 11.25, Example 3 28.2, Example 5 28.2. It counts as in vivo. The protocol:
as §1
Intracerebral toxicity study in mice
Swiss albino mice of either sex, weighing 18 to 23 grams were used for this test according to the method of Haley (Brit. J. Pharmcol. 12, 12-15 1957). At each dose level, the contrast medium was injected as follows. The mouse was grasped firmly by the loose skin behind the head. After the skin was pulled taut, a 3/8 inch 27 gauge needle attached to a 0.25 ml. syringe was inserted perpendicularly through the skull into the brain at a point 2 mm. from either side of the mid line on a line drawn through the anterior base on the ears. A dose of 0.05 ml. (0.1 ml. maximum) of various concentrations of the contrast medium was injected.
Mortalities were recorded during the first four hours, then daily for two days. Surviving animals were sacrificed 48 hours after injection and the LD50 value was calculated according to the method of Litchfield and Wilcoxon (J. Pharmacol. Exp. Ther. 96, 99-113, 1949).

Data set [5] is described as follows: physchem. The following applies: water.

Data on four compounds can be found in patent US4307072A, “N-Triiodobenzoylaminoacyl polyhydroxic amines” (Mallinckrodt, Inc., priority 1977, dated 1981).

Values after ≈ are worked out from the molar mass of the structure shown.

For orientation: solubility means the concentration that dissolves in the medium under given conditions. As to `CC(=O)Nc1c(I)c(C(=O)NCC(=O)N(C)C[C@H](O)[C@@H](O)[C@H](O)[C@H](O)CO)c(I)c(N(C)C(C)=O)c1I` [Example 5, N-(3-Acetamido-2,4,6-triiodo-5-N-methylacetamidobenzoylglycyl)-1-(methylamino)-1-deoxy-D-glucitol], the “Intravenous LD50” value in data set [1] was ~8,000 mg. I/kg. For the same compound, in data set [2], the “Intracisternal LD50” value came out at 400 mg. I/kg. In data set [3] (water), this compound had a solubility of roughly 1000 mg/mL (≈ 1160 mM). Also, in data set [4], the “Intracerebral LD50” value is reported as roughly 1100 mg. I/kg.
As for `CC(=O)Nc1c(I)c(C(=O)NCC(=O)N(C)CC(O)CO)c(I)c(C(=O)NCC(=O)N(C)CC(O)CO)c1I` (centres unmarked) [Example 3, (5-Acetamido-2,4,6-triiodoisophthaloyl)-N,N'-bis-2,3-dihydroxypropyl-N,N'-dimethyl-bis glycinamide], in data set [1], the “Intravenous LD50” value is > 15,000 mg. I/kg. Further, in data set [2], the “Intracisternal LD50” value was 100 mg. I/kg. For the same compound, in data set [4], the “Intracerebral LD50” value is listed as roughly 1425 mg. I/kg. The compound also gave a solubility in data set [5] of roughly 1000 mg/mL (≈ 1120 mM).
For `CC(=O)Nc1c(I)c(C(=O)NCC(=O)N[C@@H](CO)[C@@H](O)[C@H](O)[C@H](O)CO)c(I)c(N(C)C(C)=O)c1I` [Example 1, 2-(3-Acetamido-2,4,6-triiodo-5-N-methylacetamidobenzoylglycylamino)-2-deoxy-D-glucitol], the “Intravenous LD50” value in data set [1] was ~10,000 mg. I/kg. The “Intracisternal LD50” value in data set [2] is roughly 525 mg. I/kg. Also, the solubility in data set [3] is 1000 mg/mL (≈ 1180 mM); in data set [3] (water), roughly 1000 mg/mL (≈ 1180 mM). In addition, in data set [4], the “Intracerebral LD50” value is roughly 1550 mg. I/kg.
On to `CNC(=O)c1c(I)c(NC(C)=O)c(I)c(C(=O)NCC(=O)N[C@@H](CO)[C@@H](O)[C@H](O)[C@H](O)CO)c1I` [Example 2, 2-Deoxy-2-(3-Acetamido-2,4,6-triiodo-5-N-methylcarbamyl-benzoylglycylamino)-D-glucitol], for which the “Intravenous LD50” value in data set [1] is > 7,500 mg. I/kg. The “Intracisternal LD50” value in data set [2] is given as less than 200 mg. I/kg. Further, the solubility in data set [3] (water) is roughly 50 mg/mL (≈ 59.9 mM). In data set [4], the “Intracerebral LD50” value was greater than 543 mg. I/kg.
